# Source: patent publication US20050232925A1, “Protease activity of thrombin inhibits angiogenesis” (priority 2002, published 2005)
# Tests used:
# HUVEC cells = assay: In vitro angiogenesis (matrigel tube formation) assay; assay type: cell-based, human
# Experimental: In Vitro Angiogenesis (matrigel tube formation) Assay. Unpolymerized matrigel (7 mg/ml) was placed in the wells (100 μl/well) of a pre-chilled 48-well cell culture plate and then incubated at 37° C. for 30-45 minutes. HUVEC cells were harvested in trypsin and resuspended in EC medium (4×10^4 in 300 μl). Cells were treated with the different agents before plated onto the matrigel-coated plates. […] Microphotographs of the center of each well at low power (40×) were taken with a SPOT camera (Diagnostic Instruments Inc; Sterling Heights, Mich.) and the aid of an imaging capture software (Compix Inc Imaging Systems; Township, Pa.). The microphotographs were quantitatively analyzed (total tube length) with the Simple PCI imaging analysis software (Compix).
# Matrigel tube formation assays. Samples collected from the purification process were exchanged into 1×PBS and reconstituted into 1× concentration (by volume) compared to the input tPA/captopril-treated plasma. They were tested in the matrigel tube formation assays at 10% (v/v) as follows. Unpolymerized matrigel (7 mg/ml) was placed in the wells (100 μl/well) of a pre-chilled 48-well cell culture plate and then incubated at 37° C. for 30-45 minutes for polymerization to take place. […] Tube formation was examined (4× magnification) through an inverted phase contrast microscope (Nikon Corporation; Tokyo, Japan) and recorded by a Spot RT camera (Diagnostic Instruments Inc; Sterling Heights, Mich.) using an automated image capture software (Compix Inc Imaging Systems; Township, Pa.).
# [1] = system: microvessels in bFGF-containing matrigel plugs; assay: In vivo angiogenesis (matrigel plug) assay, systemic treatment; design: species or system mice; conditions: rt-PA 60 μg subcutaneously/day, captopril 150 μg intraperitoneally/day, 10 days
# Experimental: In Vivo Angiogenesis (Matrigel Plug) Assay. The matrigel-plug assay was performed as described in Maeshima et al., (Maeshima et al., J Biol Chem 275:21340-8, 2000; Maeshima et al., J Biol Chem 276:31959-68, 2001) with modifications as follows. All animal studies were reviewed and approved by the animal care and use committee of Beth Israel Deaconess Medical Center and are in accordance with the guidelines of the department of Health and Human Services. Five to six week-old male C57/BL6 mice (The Jackson Laboratories; Bar Harbor, Me.) were injected subcutaneously at the left lower abdominal wall with 0.5 ml of unpolymerized matrigel supplemented with 500 ng/ml of basic fibroblast growth factor for the stimulated controls and treatment groups and with equivalent volume of sterile PBS for the unstimulated (no b-FGF) control group. Mice (3 per group) were treated for 10 days with: 1) rt-PA (60 μg subcutaneously/day) and captopril (150 μg intraperitoneally/day). 2) Subcutaneous rt-PA alone with equivalent volume of intraperitoneal (IP) PBS. 3) IP captopril (150 μg) with equivalent volume of subcutaneous PBS. 4) Equivalent volumes of PBS (subcutaneously and intraperitoneally). […] Sections were examined by light microscopy, and the total number of blood vessels from 10 high power fields (400× magnification) were counted in a blinded fashion. […]
# platelet aggregation = conditions: phenylalanine to alanine mutation at position 2; cited from earlier work
# [2] = system: blood vessels in bFGF-enriched matrigel plugs; assay: In vivo matrigel-plug assay, agent mixed into matrigel; design: species or system mice
# Experimental: In vivo matrigel-plug assays. The matrigel-plug assay was performed as described in Maeshima et al., (Maeshima et al., J Biol Chem 275:21340-8, 2000; Maeshima et al., J Biol Chem 276:31959-68, 2001) with modifications as follows. Briefly, 500 μl of unpolymerized matrigel at a concentration of 10 mg/ml enriched with bFGF (250 ng/ml) were mixed with one of the following: PBS (vehicle), prothrombin, or TRAP. Each mixture was injected subcutaneously at the left lower abdominal wall of C57/B mice (5 to 6-week old; Jackson laboratories; Bar Harbor, Me.). At day ten, the mice were sacrificed. The matrigel plugs were then excised, fixed in 4% paraformaldehyde, embedded in paraffin, sectioned, and H&E stained. Sections were examined by light microscopy, and the total number of blood vessels from 10 high power fields (400×) were counted in a blinded fashion. Only the micro-vessels containing red blood cells were counted as positive. Results shown represent the average of counts from 4 to 5 matrigel plugs per group.
# [3] = system: 4T1 murine breast cancer cell line; assay: Primary tumor growth of transfected 4T1 cells in BALB/c mice; assay type: in vivo; conditions: stable expression in 4T1 cells, mammary pad of BALB/c mice, vs empty vector, five weeks
# Description: Construction of mutant uPA clones and cell transfection. We chose to pursue a genetic approach, in which we stably transfected an aggressive and highly metastatic murine breast cancer cell line (4T1) with the genes for wild type uPA, tPA and a receptor binding mutant of uPA (uPAm). We inserted the cDNA encoding murine tPA into pcDNA 3.1 (+) (Invitrogen), a CMV driven mammalian expression vector, by restriction enzyme digestion of BamHI and NheI. Wild type uPA cDNA was inserted to the pcDNA 3.1 (+) expression vector and the transfected into 4T1 cells in a similar fashion as described for the tPA cDNA. Residues 22, 27, 29 and 30 on the growth factor domain of the murine uPA molecule have been implicated in binding to mouse uPAR.
# The pcDNA 3.1-tPA, pcDNA 3.1-wild type uPA, pcDNA 3.1-uPAm constructs, as well as an empty vector control were introduced into 4T1 cells by transfection using lipofectamine (Gibco-BRL) reagent. We selected 12-14 stable single clones in each group with 500 ug/mL of hygromycin. Each of the clones was evaluated for generation of the gene of interest by northern blot. The clones that had the highest generation of the genes of interest were selected. […]
# Experiments using transfected tumor cells. […] Primary tumor size was measured every other day for a total of five weeks using calipers and calculated using the standard formula (width2×length×0.52). […]
compound,measurement,setting,value
C[C@H](CS)C(=O)N1CCC[C@H]1C(=O)O [captopril],inhibition of tube formation,"HUVEC cells; in the absence of plasma, rt-PA 1 μg/ml, captopril 0.1 μM",did not cause significant inhibition of tube formation
same,microvessel counts in matrigel plugs,[1],did not show major reduction of neovascularization
Angiostatin,inhibition of tube formation,HUVEC cells; 10 μg/ml,did not significantly inhibit tube formation
same,inhibition of tube formation,HUVEC cells; 50 μg/ml,did not significantly inhibit tube formation
GYPGKF,endothelial cell tube formation,HUVEC cells; 100 μM peptide,little effect on tube formation
SALLRN,endothelial cell tube formation,HUVEC cells; 100 μM peptide,no inhibitory effect
same,ability to induce platelet aggregation in vitro,platelet aggregation,completely eliminated the ability of the peptide to induce platelet aggregation
SFLLRN,endothelial cell tube formation,HUVEC cells; 50 and 100 μM SFLLRN,dose-dependent inhibitory effect on endothelial cell tube formation
SFLLRNPNDKYEPF [TRAP],endothelial cell tube formation,"HUVEC cells; 1, 10, 100 μM TRAP",dose-dependently inhibited endothelial cell tube formation
same,reduction of bFGF-stimulated blood vessel formation in matrigel plugs,"[2]; 250 ng/ml bFGF, day 10, 10 ρg/ml prothrombin, 250 μM TRAP (FIG. 13)",significantly reduced
SLIGKV,endothelial cell tube formation,HUVEC cells; 100 μM peptide,little effect on tube formation
"bFGF: basic fibroblast growth factor (Peprotech), proangiogenic stimulant",increase in angiogenesis in matrigel plugs,[2]; 250 ng/ml bFGF vs no bFGF,seven-fold increase
lepirudin,block of thrombin inhibition of tube formation,HUVEC cells; 10 U/ml thrombin with 200 U/ml lepirudin,completely blocked
same,endothelial cell tube formation,HUVEC cells; lepirudin alone at 200 U/ml,no effects in endothelial cell tube formation
same,block of prothrombin inhibition of tube formation,HUVEC cells; prothrombin with 200 U/ml lepirudin,completely blocked
thrombin,endothelial cell tube formation,"HUVEC cells; thrombin at 5 U/ml (FIGS. 11D, 11E: 1 and 5 U/ml)",minimal effects on endothelial cell tube formation
same,endothelial cell tube formation,HUVEC cells; thrombin at 10 U/ml,significantly inhibits tube formation
wildtype uPA: murine wild type uPA expressed from pcDNA 3.1 in 4T1 cells,inhibition of primary tumor growth,[3],significantly inhibit tumor cell growth
